Source: PMC5218480 (PLoS ONE, 2017)

System: MV-4-11 cells
Assay: Gene expression microarray analysis (Affymetrix PrimeView) and GSEA
Assay type: cell-based, human
Design: RFU PODN (11730768_x_at) / Fold change /veh PODN (11730768_x_at) / RFU LINC00158 (11744669_a_at) / Fold change /veh LINC00158 (11744669_a_at) / RFU DUSP10 (11751237_a_at) / Fold change /veh DUSP10 (11751237_a_at) / RFU ID3 (11757404_x_at) / Fold change /veh ID3 (11757404_x_at) / RFU PLEKHG5 (11737974_s_at) / Fold change /veh PLEKHG5 (11737974_s_at) / RFU LRRC4B (11730491_at) / Fold change /veh LRRC4B (11730491_at) / RFU GIMAP4 (11747438_a_at) / Fold change /veh GIMAP4 (11747438_a_at) / RFU KRT8 (11758183_x_at) / Fold change /veh KRT8 (11758183_x_at) / RFU CNN1 (11734310_a_at) / Fold change /veh CNN1 (11734310_a_at) / RFU VPS37D (11726825_at) / Fold change /veh VPS37D (11726825_at) / RFU C10orf10 (11716522_x_at) / Fold change /veh C10orf10 (11716522_x_at) / RFU KIR2DL2 /// KIR2DL4 /// KIR2DL5A /// KIR2DL5B /// KIR2DS1 /// KIR2DS2 /// KIR2DS3 /// KIR2DS4 /// KIR3DL3 /// KIR3DL3 /// KIR3DS1 (11738374_at) / Fold change /veh KIR2DL2 /// KIR2DL4 /// KIR2DL5A /// KIR2DL5B /// KIR2DS1 /// KIR2DS2 /// KIR2DS3 /// KIR2DS4 /// KIR3DL3 /// KIR3DL3 /// KIR3DS1 (11738374_at) / RFU C1QL1 (11718748_at) / Fold change /veh C1QL1 (11718748_at) / RFU TMPRSS4 (11747572_a_at) / Fold change /veh TMPRSS4 (11747572_a_at) / RFU HAMP (11756126_x_at) / Fold change /veh HAMP (11756126_x_at) / RFU RNFT2 (11725882_a_at) / Fold change /veh RNFT2 (11725882_a_at) / RFU NR4A2 (11747474_a_at) / Fold change /veh NR4A2 (11747474_a_at) / RFU ABCC12 (11746883_a_at) / Fold change /veh ABCC12 (11746883_a_at) / RFU TMEM136 (11760407_x_at) / Fold change /veh TMEM136 (11760407_x_at) / RFU CLDN22 /// WWC2 (11732394_at) / Fold change /veh CLDN22 /// WWC2 (11732394_at) / RFU HLA-DPB1 (11760878_x_at) / Fold change /veh HLA-DPB1 (11760878_x_at) / RFU SPINT1 (11716480_a_at) / Fold change /veh SPINT1 (11716480_a_at) / RFU GAP43 (11754022_s_at) / Fold change /veh GAP43 (11754022_s_at) / RFU A4GNT (11735810_at) / Fold change /veh A4GNT (11735810_at) / RFU PRB3 (11715151_x_at) / Fold change /veh PRB3 (11715151_x_at) / RFU TUBB4B (11761932_at) / Fold change /veh TUBB4B (11761932_at) / RFU CAPN14 (11732068_a_at) / Fold change /veh CAPN14 (11732068_a_at) / RFU TMCC2 (11721928_a_at) / Fold change /veh TMCC2 (11721928_a_at) / RFU IRGQ (11745062_a_at) / Fold change /veh IRGQ (11745062_a_at) / RFU FAM174B (11720279_a_at) / Fold change /veh FAM174B (11720279_a_at) / RFU TMPRSS4 (11748680_a_at) / Fold change /veh TMPRSS4 (11748680_a_at) / RFU FAM212B (11763350_a_at) / Fold change /veh FAM212B (11763350_a_at) / RFU PLEKHG5 (11743358_a_at) / Fold change /veh PLEKHG5 (11743358_a_at) / RFU ZSCAN30 (11745921_a_at) / Fold change /veh ZSCAN30 (11745921_a_at) / RFU CMKLR1 (11741424_a_at) / Fold change /veh CMKLR1 (11741424_a_at) / RFU LOC101060620 /// MAPK8IP1 (11723275_at) / Fold change /veh LOC101060620 /// MAPK8IP1 (11723275_at) / RFU SPTSSB (11747773_x_at) / Fold change /veh SPTSSB (11747773_x_at) / RFU PRSS12 (11739890_at) / Fold change /veh PRSS12 (11739890_at) / RFU BIN1 (11741810_x_at) / Fold change /veh BIN1 (11741810_x_at) / RFU WNT11 (11732464_a_at) / Fold change /veh WNT11 (11732464_a_at) / RFU C10orf10 (11716521_a_at) / Fold change /veh C10orf10 (11716521_a_at) / RFU C5orf56 (11738089_at) / Fold change /veh C5orf56 (11738089_at) / RFU CYB561 (11721691_x_at) / Fold change /veh CYB561 (11721691_x_at) / RFU ANKRD19P (11752326_a_at) / Fold change /veh ANKRD19P (11752326_a_at) / RFU OR2T12 /// OR2T33 /// OR2T8 (11738714_s_at) / Fold change /veh OR2T12 /// OR2T33 /// OR2T8 (11738714_s_at) / RFU VCAN (11748164_a_at) / Fold change /veh VCAN (11748164_a_at) / RFU JSRP1 (11732532_at) / Fold change /veh JSRP1 (11732532_at) / RFU KRTAP10-11 (11738290_x_at) / Fold change /veh KRTAP10-11 (11738290_x_at) / RFU MYO3A (11730013_a_at) / Fold change /veh MYO3A (11730013_a_at) / RFU EBF3 (11725865_a_at) / Fold change /veh EBF3 (11725865_a_at) / RFU CAMK2N1 (11719241_x_at) / Fold change /veh CAMK2N1 (11719241_x_at) / RFU C5orf56 (11738088_a_at) / Fold change /veh C5orf56 (11738088_a_at) / RFU OLFML3 (11715873_a_at) / Fold change /veh OLFML3 (11715873_a_at) / RFU LOC100653217 /// NTM (11731650_a_at) / Fold change /veh LOC100653217 /// NTM (11731650_a_at) / RFU MAPK11 (11762145_a_at) / Fold change /veh MAPK11 (11762145_a_at) / RFU FIZ1 (11724087_x_at) / Fold change /veh FIZ1 (11724087_x_at) / RFU OASL (11726364_x_at) / Fold change /veh OASL (11726364_x_at) / RFU SOX15 (11748057_x_at) / Fold change /veh SOX15 (11748057_x_at) / RFU CD79A (11719716_a_at) / Fold change /veh CD79A (11719716_a_at) / RFU HIST1H1D (11736915_at) / Fold change /veh HIST1H1D (11736915_at) / RFU CASKIN2 (11723855_a_at) / Fold change /veh CASKIN2 (11723855_a_at) / RFU LOC730098 (11760151_x_at) / Fold change /veh LOC730098 (11760151_x_at) / RFU OR4N2 (11742367_at) / Fold change /veh OR4N2 (11742367_at) / RFU PRRT2 (11749266_a_at) / Fold change /veh PRRT2 (11749266_a_at) / RFU SNX32 (11753110_a_at) / Fold change /veh SNX32 (11753110_a_at) / RFU CDHR5 (11726645_a_at) / Fold change /veh CDHR5 (11726645_a_at) / RFU RCAN1 (11760418_a_at) / Fold change /veh RCAN1 (11760418_a_at) / RFU FAM167A (11723789_a_at) / Fold change /veh FAM167A (11723789_a_at) / RFU FAM26E (11764081_at) / Fold change /veh FAM26E (11764081_at) / RFU ISYNA1 (11749810_s_at) / Fold change /veh ISYNA1 (11749810_s_at) / RFU ACY1 (11761880_at) / Fold change /veh ACY1 (11761880_at) / RFU 11764098_at / Fold change /veh 11764098_at / RFU SAMD14 (11745864_x_at) / Fold change /veh SAMD14 (11745864_x_at) / RFU NPB (11741838_a_at) / Fold change /veh NPB (11741838_a_at) / RFU TMPRSS6 (11731388_a_at) / Fold change /veh TMPRSS6 (11731388_a_at) / RFU KRTAP10-2 (11738614_at) / Fold change /veh KRTAP10-2 (11738614_at) / RFU ARHGAP8 /// PRR5-ARHGAP8 (11727945_x_at) / Fold change /veh ARHGAP8 /// PRR5-ARHGAP8 (11727945_x_at) / RFU KRTAP5-7 /// NADSYN1 (11734609_at) / Fold change /veh KRTAP5-7 /// NADSYN1 (11734609_at) / RFU RASL12 (11751679_a_at) / Fold change /veh RASL12 (11751679_a_at) / RFU CDKN2B (11736163_a_at) / Fold change /veh CDKN2B (11736163_a_at) / RFU PRF1 (11729649_at) / Fold change /veh PRF1 (11729649_at) / RFU, ZNF638 /// ZNF638-IT1 / Fold change vs veh, ZNF638 /// ZNF638-IT1 / RFU, PANK3 / Fold change vs veh, PANK3 / RFU, SH3YL1 / Fold change vs veh, SH3YL1 / RFU, ZEB2 / Fold change vs veh, ZEB2 / RFU, NRIP1 / Fold change vs veh, NRIP1 / RFU, PTTG1IP / Fold change vs veh, PTTG1IP / RFU, CAPN2 / Fold change vs veh, CAPN2 / RFU, MED14 / Fold change vs veh, MED14 / RFU, SNORA58 / Fold change vs veh, SNORA58 / RFU, C1orf63 / Fold change vs veh, C1orf63 / RFU, LRRFIP1 / Fold change vs veh, LRRFIP1 / RFU, NDUFAF7 / Fold change vs veh, NDUFAF7 / RFU, SLC12A2 / Fold change vs veh, SLC12A2 / RFU, IBTK / Fold change vs veh, IBTK / RFU, ESF1 / Fold change vs veh, ESF1 / Fold change vs veh, TMEM50B / RFU, TAOK1 / Fold change vs veh, TAOK1 / RFU, ACBD3 / Fold change vs veh, ACBD3 / RFU, TMA16 / Fold change vs veh, TMA16 / RFU, RWDD3 / Fold change vs veh, RWDD3 / RFU, BCAT1 / Fold change vs veh, BCAT1 / RFU, EDEM3 / Fold change vs veh, EDEM3 / RFU, TMEM33 / Fold change vs veh, TMEM33 / RFU, WDR75 / Fold change vs veh, WDR75 / RFU, AHCTF1 / Fold change vs veh, AHCTF1 / RFU, TFRC / Fold change vs veh, TFRC / RFU, ZDHHC17 / Fold change vs veh, ZDHHC17 / RFU, NOM1 / Fold change vs veh, NOM1 / RFU, ARL8B / Fold change vs veh, ARL8B / RFU, ZBTB11 / Fold change vs veh, ZBTB11 / RFU, TAMM41 / Fold change vs veh, TAMM41 / RFU, KIAA1704 /// LOC100996395 / Fold change vs veh, KIAA1704 /// LOC100996395 / RFU, ING1 / Fold change vs veh, ING1 / RFU, TRMT61B / Fold change vs veh, TRMT61B / RFU, FUBP3 / Fold change vs veh, FUBP3 / RFU, TP53 / Fold change vs veh, TP53 / RFU, TNKS2 / Fold change vs veh, TNKS2 / RFU, ZFP14 / Fold change vs veh, ZFP14 / RFU, ACTR2 / Fold change vs veh, ACTR2 / RFU, PPP3R1 / Fold change vs veh, PPP3R1 / RFU, PIK3R1 / Fold change vs veh, PIK3R1 / RFU, HNRNPA1 / Fold change vs veh, HNRNPA1 / RFU, RNF170 / Fold change vs veh, RNF170 / RFU, ZNF28 / Fold change vs veh, ZNF28 / RFU, RNGTT / Fold change vs veh, RNGTT / RFU, OGT / Fold change vs veh, OGT / RFU, BRD1 / Fold change vs veh, BRD1 / RFU, MARS / Fold change vs veh, MARS / RFU, ZNF655 / Fold change vs veh, ZNF655 / RFU, FAHD1 / Fold change vs veh, FAHD1 / RFU, BDP1 / Fold change vs veh, BDP1 / RFU, LRRCC1 / Fold change vs veh, LRRCC1 / RFU, ARID1A / Fold change vs veh, ARID1A / RFU, ZNF146 / Fold change vs veh, ZNF146 / RFU, ZNF330 / Fold change vs veh, ZNF330 / RFU, GPN3 / Fold change vs veh, GPN3 / RFU, C9orf123 / Fold change vs veh, C9orf123 / RFU, N4BP2L2 / Fold change vs veh, N4BP2L2 / RFU, ARFIP1 / Fold change vs veh, ARFIP1 / RFU, FAM179B / Fold change vs veh, FAM179B / RFU, BCL10 / Fold change vs veh, BCL10 / RFU, UHRF1BP1L / Fold change vs veh, UHRF1BP1L / RFU, BET1 / Fold change vs veh, BET1 / RFU, CNOT2 / Fold change vs veh, CNOT2 / RFU, ZNF268 / Fold change vs veh, ZNF268 / Fold change vs veh, ZNF507 / RFU, DGCR2 / Fold change vs veh, DGCR2 / RFU, WDSUB1 / Fold change vs veh, WDSUB1 / Fold change vs veh, HSP90B1 /// MIR3652 / RFU, ADSS / Fold change vs veh, ADSS / RFU, GK / Fold change vs veh, GK / RFU, ZNF148 / Fold change vs veh, ZNF148 / RFU, TAF9 / Fold change vs veh, TAF9 / RFU, SLC1A5 / Fold change vs veh, SLC1A5 / RFU, SLMO2 / Fold change vs veh, SLMO2 / RFU, ABCC4 / Fold change vs veh, ABCC4 / RFU, LOC101060439 /// RAP1B / Fold change vs veh, LOC101060439 /// RAP1B / RFU, RFX7 / Fold change vs veh, RFX7 / RFU, GTPBP10 / Fold change vs veh, GTPBP10 / RFU, CNEP1R1 / Fold change vs veh, CNEP1R1 / RFU, BIVM-ERCC5 /// ERCC5 / Fold change vs veh, BIVM-ERCC5 /// ERCC5 / RFU, ILF3 / Fold change vs veh, ILF3 / RFU 11762660_at / Fold change /veh 11762660_at / RFU VCAN (11757783_s_at) / Fold change /veh VCAN (11757783_s_at) / RFU DDX43 (11728927_at) / Fold change /veh DDX43 (11728927_at) / RFU KRT8 (11758188_x_at) / Fold change /veh KRT8 (11758188_x_at) / RFU NKD1 (11759106_at) / Fold change /veh NKD1 (11759106_at) / RFU SRD5A1 (11742802_a_at) / Fold change /veh SRD5A1 (11742802_a_at) / RFU TPSAB1 /// TPSB2 (11721975_s_at) / Fold change /veh TPSAB1 /// TPSB2 (11721975_s_at) / RFU GSTM3 (11746129_a_at) / Fold change /veh GSTM3 (11746129_a_at) / RFU IL23R (11737362_x_at) / Fold change /veh IL23R (11737362_x_at) / RFU TMEM51 (11727254_a_at) / Fold change /veh TMEM51 (11727254_a_at) / RFU PIWIL2 (11732686_x_at) / Fold change /veh PIWIL2 (11732686_x_at) / RFU ORM1 (11744905_x_at) / Fold change /veh ORM1 (11744905_x_at) / RFU CCDC152 (11743942_at) / Fold change /veh CCDC152 (11743942_at) / RFU ECM1 (11717891_a_at) / Fold change /veh ECM1 (11717891_a_at) / RFU IL23R (11748794_a_at) / Fold change /veh IL23R (11748794_a_at) / RFU TNFAIP8L3 (11732012_x_at) / Fold change /veh TNFAIP8L3 (11732012_x_at) / RFU MBOAT4 (11741988_at) / Fold change /veh MBOAT4 (11741988_at) / RFU 11764193_at / Fold change /veh 11764193_at / RFU TMEM53 (11763286_at) / Fold change /veh TMEM53 (11763286_at) / RFU MAGEB2 (11727129_at) / Fold change /veh MAGEB2 (11727129_at) / RFU TMEM200A (11744735_a_at) / Fold change /veh TMEM200A (11744735_a_at) / RFU CCDC152 (11751479_a_at) / Fold change /veh CCDC152 (11751479_a_at) / RFU FAM211A (11726209_a_at) / Fold change /veh FAM211A (11726209_a_at) / RFU RGS16 (11746705_a_at) / Fold change /veh RGS16 (11746705_a_at) / RFU VCAN (11755009_s_at) / Fold change /veh VCAN (11755009_s_at) / RFU RHOB (11743442_s_at) / Fold change /veh RHOB (11743442_s_at) / RFU RGS16 (11720943_a_at) / Fold change /veh RGS16 (11720943_a_at) / RFU RGS16 (11720944_at) / Fold change /veh RGS16 (11720944_at) / RFU, VPS4B / Fold change vs veh, VPS4B / RFU, CREB1 / Fold change vs veh, CREB1 / RFU, DNAJC13 / Fold change vs veh, DNAJC13 / RFU, GNAQ / Fold change vs veh, GNAQ / RFU, CDK5R1 / Fold change vs veh, CDK5R1 / RFU, ZRANB3 / Fold change vs veh, ZRANB3 / RFU, CUL4A / Fold change vs veh, CUL4A / RFU, CCNY / Fold change vs veh, CCNY / RFU, UFL1 / Fold change vs veh, UFL1 / RFU, COG3 / Fold change vs veh, COG3 / RFU, DIAPH2 / Fold change vs veh, DIAPH2 / RFU, SKA2 / Fold change vs veh, SKA2 / RFU, AFF3 / Fold change vs veh, AFF3 / RFU, LMF1 / Fold change vs veh, LMF1 / RFU, IPO11 / Fold change vs veh, IPO11 / RFU, DFFB / Fold change vs veh, DFFB / RFU, FOXP1 / Fold change vs veh, FOXP1 / RFU, CARD8 / Fold change vs veh, CARD8 / RFU, STRN3 / Fold change vs veh, STRN3 / RFU, ADK / Fold change vs veh, ADK / RFU, RASSF2 / Fold change vs veh, RASSF2 / RFU, WIPF1 / Fold change vs veh, WIPF1 / RFU, LARP1B / Fold change vs veh, LARP1B / RFU, RASA1 / Fold change vs veh, RASA1 / RFU, RB1 / Fold change vs veh, RB1 / RFU, PPFIA1 / Fold change vs veh, PPFIA1 / RFU, MAT2A / Fold change vs veh, MAT2A / RFU, CCT5 / Fold change vs veh, CCT5 / RFU, WDR92 / Fold change vs veh, WDR92 / RFU, CUX1 / Fold change vs veh, CUX1 / RFU, TTC7A / Fold change vs veh, TTC7A / RFU, TMEM135 / Fold change vs veh, TMEM135 / RFU, DEPTOR / Fold change vs veh, DEPTOR / RFU, CPM / Fold change vs veh, CPM / RFU, DNAJB6 / Fold change vs veh, DNAJB6 / RFU, CACNA2D3 / Fold change vs veh, CACNA2D3 / RFU, DTX4 / Fold change vs veh, DTX4 / RFU, TFCP2 / Fold change vs veh, TFCP2 / RFU, GMCL1 /// GMCL1P1 / Fold change vs veh, GMCL1 /// GMCL1P1 / RFU, AEBP2 / Fold change vs veh, AEBP2 / RFU, SNHG1 /// SNORD22 /// SNORD25 /// SNORD26 /// SNORD27 /// SNORD28 /// SNORD29 /// SNORD31 / Fold change vs veh, SNHG1 /// SNORD22 /// SNORD25 /// SNORD26 /// SNORD27 /// SNORD28 /// SNORD29 /// SNORD31 / Fold change (Aza/veh), C12orf56 (ProbeSet 11735607_a_at) / Fold change (ACY-1035/veh), C12orf56 (ProbeSet 11735607_a_at) / Fold change (Aza/veh), FGFR1OP (ProbeSet 11751329_s_at) / Fold change (ACY-1035/veh), FGFR1OP (ProbeSet 11751329_s_at) / Fold change (Aza/veh), VPS36 (ProbeSet 11739960_a_at) / Fold change (ACY-1035/veh), VPS36 (ProbeSet 11739960_a_at) / RFU SYPL1 (11715823_x_at) / Fold change /veh SYPL1 (11715823_x_at) / RFU IGFBP7 (11715501_s_at) / Fold change /veh IGFBP7 (11715501_s_at) / RFU REEP3 (11722064_at) / Fold change /veh REEP3 (11722064_at) / RFU IGLL1 (11728026_x_at) / Fold change /veh IGLL1 (11728026_x_at): dose or concentration left out as unconfirmed
Conditions: ProbeSet 11763166_a_at; LIST B

Question: `Nc1ncn([C@@H]2O[C@H](CO)[C@@H](O)[C@H]2O)c(=O)n1` [azacitidine] was tested. Which “RFU, MARS” value did it give?
Answer: 35.99 RFU
